Measured values: patent US5798350A, “Dopamine receptor ligands” (Allelix Biopharmaceuticals, Inc., priority 1996, dated 1998)

target: T1, human D4 receptor (D4.2 sub-type) (Homo sapiens, UniProt P21917, DEL265-296); assay: D4 receptor binding, displacement of 3H-spiperone; settings: compared with clozapine
T1 construct: expressed in transfected cells; host or cells: HEK 298 (human embryonic kidney) cells, [sic]; homogenate of stably transfected cells
T1 sequence (P21917 with tags, fused parts or gaps DEL265-296): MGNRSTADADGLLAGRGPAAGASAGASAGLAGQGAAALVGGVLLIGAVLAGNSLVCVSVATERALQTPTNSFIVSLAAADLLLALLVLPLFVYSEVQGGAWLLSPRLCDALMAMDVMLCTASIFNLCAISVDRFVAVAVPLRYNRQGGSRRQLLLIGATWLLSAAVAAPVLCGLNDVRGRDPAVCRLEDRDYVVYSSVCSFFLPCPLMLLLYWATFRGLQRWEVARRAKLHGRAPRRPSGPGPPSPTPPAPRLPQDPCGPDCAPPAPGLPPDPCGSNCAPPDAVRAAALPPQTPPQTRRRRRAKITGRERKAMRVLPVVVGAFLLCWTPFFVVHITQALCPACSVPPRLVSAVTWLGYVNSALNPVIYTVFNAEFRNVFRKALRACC
Description: (§1) The potency of the test compound to reduce ^3 H-spiperone binding directly correlated to its binding affinity for the receptor.
The cells were then centrifuged in a Sorval centrifuge for 10 minutes, 5000 rpm (GS3 rotor) and the pellets quickly frozen in liquid nitrogen and stored at -80° C. until used in binding assay. When used in the assay, cells were thawed on ice for 20 minutes and then 10 mL of incubation buffer (50 mM Tris, 1 mM EDTA, 4 mM MgCl2, 5 mM KCl, 1.5 mM CaCl2, 120 mM NaCl, pH7.4) was added. […] Concentration of receptor protein was determined using the Pierce BCA assay.
(§2) Total Spiperone Binding Assay
(§3) The tubes were vortexed and incubated at room temperature for 90 minutes. The binding reaction was stopped by filtering using a Brandell Cell Harvester. The samples were filtered under vacuum over glass fibre filters (Whatman GF/B) presoaked for 2 hours in 0.3% polyethyleneimine (PEI) in 50 mM Tris buffer (pH7.4). The filters were then washed 3 times with 5 mL ice cold 50 mM Tris buffer (pH7.4). Individual filter disks were put in scintillation vials (Biovials, Bechman). Ready Protein Plus liquid scintillant (5 mL, Beckman) was added and the vials counted by liquid scintillation spectrophotometry (Beckman LSC 6500) after equilibrating for three hours at room temperature to determine total binding (BT).
Non-Specific Binding Assay for D4
The tubes were vortexed and incubated at room temperature for 90 minutes at which time the binding reaction was stopped by filtering. The filters were washed and counted using the same procedure as in the total binding assay described above to give the non-specific binding value (NSB).
(§4) Displacement Binding Assay
(§5) The incubation was started by the addition to 12×75 mm polypropylene tubes 500 μl (50 μg protein) membrane homogenate to a solution of 400 μl incubation buffer, 100 μl (0.25 final conc.) ^3 H-spiperone (90Ci/mmol, Amersham, diluted in borosilicate glass vial to) and […] of test compound that was prepared from 1 mM stock dissolved in DMSO and stored at -20° C. in polypropylene cryogenic storage vials until dilution in incubation buffer in borosilicate glass vials. The tubes were vortexed and incubated at room temperature for 90 minutes at which time the binding reaction was stopped by filtering. The filters were washed and counted using the same procedure as in the total binding assay described above to give the displacement binding value (BD).
IC50 was determined from an inhibition response curve, logit-log plot of %B/BO vs concentration of test compound.
(§6) Ki was calculated by the Cheng and Prustoff transformation: […]
(§7) where [L] is the concentration of ^3 H-spiperone used in the assay and KD is the to dissociation constant of ^3 H-spiperone determined independently under the same binding conditions.

Row | D4 affinity | Structure (SMILES) | D4 affinity and selectivity
1 | better D4 affinity than clozapine | COc1ccc2c(c1)C(N1CCN(Cc3ccc4c(c3)OCO4)CC1)=Nc1ccccc1N2 [2-methoxy-11-(4-piperonyl-1-piperazinyl)-5H-dibenzo[b,e][1,4]diazepine] | –
2 | better D4 affinity than clozapine | O=[N+]([O-])c1ccc2c(c1)C=C(N1CCN(Cc3ccc4c(c3)OCO4)CC1)c1ccccc1S2 [2-nitro-10-(4-piperonyl-1-piperazinyl)dibenzo[b,f]thiepine] | better D4 affinity and selectivity than clozapine

same assay, conditions: compared with corresponding 4-methyl piperazine compound

Row | Structure (SMILES) | D4 affinity and selectivity
3 | COc1ccc2c(c1)C(N1CCN(Cc3ccc4c(c3)OCO4)CC1)=Nc1ccccc1N2 [2-methoxy-11-(4-piperonyl-1-piperazinyl)-5H-dibenzo[b,e][1,4]diazepine] | better D4 affinity and selectivity than the corresponding 4-methyl piperazine compound
4 | Cc1cc2c(cc1C)Nc1ccccc1C(N1CCN(Cc3ccc4c(c3)OCO4)CC1)=N2 [7,8-dimethyl-11-(4-piperonyl)-1-piperazinyl)-5H-dibenzo[b,f][1,4]diazepine] | better D4 affinity and selectivity than the corresponding 4-methyl piperazine compound
5 | Clc1ccc2c(c1)N=C(N1CCN(Cc3ccc4c(c3)OCO4)CC1)c1ccccc1S2 [8-chloro-11-(4-piperonyl)-1-piperazinyl)dibenzo[b,f][1,4]thiazepine] | better D4 affinity and selectivity than the corresponding 4-methyl piperazine compound
6 | Cc1ccc2c(c1)N=C(N1CCN(Cc3ccc4c(c3)OCO4)CC1)c1ccccc1O2 [8-methyl-11-(4-piperonyl)-1-piperazinyl)dibenz[b,f][1,4]oxazepine] | better D4 affinity and selectivity than the corresponding 4-methyl piperazine compound
7 | c1ccc2c(c1)N=C(N1CCN(Cc3ccc4c(c3)OCO4)CC1)c1ccccc1N2 [11-(4-piperonyl)-1-piperazinyl-5H-dibenzo[b,e][1,4]diazepine] | better D4 affinity and selectivity than the corresponding 4-methyl piperazine compound

same assay, conditions: human D4 receptor; 3H-spiperone 0.25 nM

Row | Ki [nM] | Structure (SMILES)
8 | 149 | Clc1ccc2c(c1)C(N1CCN(Cc3ccc4c(c3)OCO4)CC1)=Nc1cc(Cl)c(Cl)cc1N2 [2,7,8-trichloro-11-(4-piperonyl-1-piperazinyl)-5H-dibenzo[b,e][1,4]diazepine]
9 | 15 | COc1ccc2c(c1)C(N1CCN(Cc3ccc4c(c3)OCO4)CC1)=Nc1ccccc1N2 [2-methoxy-11-(4-piperonyl-1-piperazinyl)-5H-dibenzo[b,e][1,4]diazepine]
10 | 15.3 | O=[N+]([O-])c1ccc2c(c1)C=C(N1CCN(Cc3ccc4c(c3)OCO4)CC1)c1ccccc1S2 [2-nitro-10-(4-piperonyl-1-piperazinyl)dibenzo[b,f]thiepine]
11 | 266 | Cc1cc2c(cc1C)Nc1ccccc1C(N1CCN(Cc3ccc4c(c3)OCO4)CC1)=N2 [7,8-dimethyl-11-(4-piperonyl)-1-piperazinyl)-5H-dibenzo[b,f][1,4]diazepine]
12 | 24 | Clc1ccc2c(c1)N=C(N1CCN(Cc3ccc4c(c3)OCO4)CC1)c1ccccc1S2 [8-chloro-11-(4-piperonyl)-1-piperazinyl)dibenzo[b,f][1,4]thiazepine]
13 | 143 | Cc1ccc2c(c1)N=C(N1CCN(Cc3ccc4c(c3)OCO4)CC1)c1ccccc1O2 [8-methyl-11-(4-piperonyl)-1-piperazinyl)dibenz[b,f][1,4]oxazepine]
14 | 63 | c1ccc2c(c1)N=C(N1CCN(Cc3ccc4c(c3)OCO4)CC1)c1ccccc1N2 [11-(4-piperonyl)-1-piperazinyl-5H-dibenzo[b,e][1,4]diazepine]

target: T2, human D2 receptor (short isoform) (Homo sapiens, UniProt P14416); assay: D2 receptor binding, displacement of 3H-spiperone (GH4C1 cells), for D2/D4 selectivity; settings: D4 selectivity, ratio D2/D4
T2 construct: membrane homogenate, 3H-spiperone displacement
T2 sequence (P14416 with tags, fused parts or gaps DEL242-270): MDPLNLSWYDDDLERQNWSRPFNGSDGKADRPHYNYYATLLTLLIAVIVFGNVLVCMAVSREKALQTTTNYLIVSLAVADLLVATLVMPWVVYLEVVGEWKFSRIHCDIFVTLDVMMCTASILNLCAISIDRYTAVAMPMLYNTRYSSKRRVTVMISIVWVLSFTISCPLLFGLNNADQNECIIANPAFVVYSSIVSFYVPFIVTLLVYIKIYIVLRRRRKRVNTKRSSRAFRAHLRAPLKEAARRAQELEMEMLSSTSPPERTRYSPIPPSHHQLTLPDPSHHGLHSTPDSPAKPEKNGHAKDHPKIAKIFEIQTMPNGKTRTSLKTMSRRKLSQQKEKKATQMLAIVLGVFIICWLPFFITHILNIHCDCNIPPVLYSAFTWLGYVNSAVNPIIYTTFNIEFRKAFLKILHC
Description: as §1
GH4 C1 (rat pituitary) cells stably transfected with the human D2 receptor (short isoform) were grown in CO2 independent media in roller bottles (1500 cm^2) for 10 days. 100 μM ZnSO4 was added to the cells (the D2 promoter being zinc inducible). After 16 hours, fresh media was added to allow the cells to recover for 24 hours. The cells were harvested using versene and then centrifuged in a Sorval centrifuge for 10 minutes, at 5000 rpm (GS3 rotor). Pellets were quickly frozen in liquid nitrogen and stored at -80° C. until used in the binding assays. When used in the assay, cells were thawed on ice for 20 minutes. […] 10 mL of incubation buffer was added to the pellets which were then vortexed, resuspended and homogenized with a Kinematica CH-6010 Kriens-LU homogenizer for 15 seconds at setting 7. The receptor protein concentration was determined using the Pierce BCA assay.
as §2
as §3, with “The incubation was started by the addition of 500 μl (50 μg protein) membrane homogenate to a solution of 900 μl incubation buffer and 100 μl (0.25 nM final conc.) ^3 H-spiperone (90 Ci/mmol Amersham diluted in borosilicate glass vial) in 12×75 mm polypropylene tubes. The tubes” for “The tubes”
Non-Specific Binding Assay for D2
This assay employed the same procedures as the non-specific binding assay for D4 with the exception that 2 μM (final conc.) of (-) sulpiride (Research Chemicals Inc.) was used in place of dopamine.
as §4, §5
Specific binding in the absence of test compound (BO) was the difference of total binding (BT) minus non-specific binding (NSB) and similarly specific binding (in the presence of test compound) (B) was the difference of displacement binding (BD) minus non-specific binding (NSB). IC50 was determined from an inhibition response curve, logit-log plot of %B/BO vs concentration of test compound.
as §6, §7

Row | D2/D4 | Structure (SMILES)
15 | 15.7 | Clc1ccc2c(c1)C(N1CCN(Cc3ccc4c(c3)OCO4)CC1)=Nc1cc(Cl)c(Cl)cc1N2 [2,7,8-trichloro-11-(4-piperonyl-1-piperazinyl)-5H-dibenzo[b,e][1,4]diazepine]
16 | 5.1 | COc1ccc2c(c1)C(N1CCN(Cc3ccc4c(c3)OCO4)CC1)=Nc1ccccc1N2 [2-methoxy-11-(4-piperonyl-1-piperazinyl)-5H-dibenzo[b,e][1,4]diazepine]
17 | 281 | O=[N+]([O-])c1ccc2c(c1)C=C(N1CCN(Cc3ccc4c(c3)OCO4)CC1)c1ccccc1S2 [2-nitro-10-(4-piperonyl-1-piperazinyl)dibenzo[b,f]thiepine]
18 | 14.1 | Cc1cc2c(cc1C)Nc1ccccc1C(N1CCN(Cc3ccc4c(c3)OCO4)CC1)=N2 [7,8-dimethyl-11-(4-piperonyl)-1-piperazinyl)-5H-dibenzo[b,f][1,4]diazepine]
19 | 63 | Clc1ccc2c(c1)N=C(N1CCN(Cc3ccc4c(c3)OCO4)CC1)c1ccccc1S2 [8-chloro-11-(4-piperonyl)-1-piperazinyl)dibenzo[b,f][1,4]thiazepine]
20 | 9.8 | Cc1ccc2c(c1)N=C(N1CCN(Cc3ccc4c(c3)OCO4)CC1)c1ccccc1O2 [8-methyl-11-(4-piperonyl)-1-piperazinyl)dibenz[b,f][1,4]oxazepine]
21 | 6 | c1ccc2c(c1)N=C(N1CCN(Cc3ccc4c(c3)OCO4)CC1)c1ccccc1N2 [11-(4-piperonyl)-1-piperazinyl-5H-dibenzo[b,e][1,4]diazepine]

same assay, conditions: compared with clozapine

Row | D4 selectivity | Structure (SMILES)
22 | better D4 selectivity than clozapine | Clc1ccc2c(c1)C(N1CCN(Cc3ccc4c(c3)OCO4)CC1)=Nc1cc(Cl)c(Cl)cc1N2 [2,7,8-trichloro-11-(4-piperonyl-1-piperazinyl)-5H-dibenzo[b,e][1,4]diazepine]
23 | better D4 selectivity than clozapine | O=[N+]([O-])c1ccc2c(c1)C=C(N1CCN(Cc3ccc4c(c3)OCO4)CC1)c1ccccc1S2 [2-nitro-10-(4-piperonyl-1-piperazinyl)dibenzo[b,f]thiepine]
24 | better D4 selectivity than clozapine | Cc1cc2c(cc1C)Nc1ccccc1C(N1CCN(Cc3ccc4c(c3)OCO4)CC1)=N2 [7,8-dimethyl-11-(4-piperonyl)-1-piperazinyl)-5H-dibenzo[b,f][1,4]diazepine]
25 | better D4 selectivity than clozapine | Clc1ccc2c(c1)N=C(N1CCN(Cc3ccc4c(c3)OCO4)CC1)c1ccccc1S2 [8-chloro-11-(4-piperonyl)-1-piperazinyl)dibenzo[b,f][1,4]thiazepine]

same assay, conditions: compared with corresponding 4-methyl piperazine compound

Row | Structure (SMILES) | D4 selectivity
26 | Clc1ccc2c(c1)C(N1CCN(Cc3ccc4c(c3)OCO4)CC1)=Nc1cc(Cl)c(Cl)cc1N2 [2,7,8-trichloro-11-(4-piperonyl-1-piperazinyl)-5H-dibenzo[b,e][1,4]diazepine] | better D4selectivity than the corresponding 4-methyl piperazine compound
27 | COc1ccc2c(c1)C(N1CCN(Cc3ccc4c(c3)OCO4)CC1)=Nc1ccccc1N2 [2-methoxy-11-(4-piperonyl-1-piperazinyl)-5H-dibenzo[b,e][1,4]diazepine] | better D4selectivity than the corresponding 4-methyl piperazine compound
28 | O=[N+]([O-])c1ccc2c(c1)C=C(N1CCN(Cc3ccc4c(c3)OCO4)CC1)c1ccccc1S2 [2-nitro-10-(4-piperonyl-1-piperazinyl)dibenzo[b,f]thiepine] | better D4selectivity than the corresponding 4-methyl piperazine compound
29 | Cc1cc2c(cc1C)Nc1ccccc1C(N1CCN(Cc3ccc4c(c3)OCO4)CC1)=N2 [7,8-dimethyl-11-(4-piperonyl)-1-piperazinyl)-5H-dibenzo[b,f][1,4]diazepine] | better D4selectivity than the corresponding 4-methyl piperazine compound
30 | Clc1ccc2c(c1)N=C(N1CCN(Cc3ccc4c(c3)OCO4)CC1)c1ccccc1S2 [8-chloro-11-(4-piperonyl)-1-piperazinyl)dibenzo[b,f][1,4]thiazepine] | better D4selectivity than the corresponding 4-methyl piperazine compound
31 | Cc1ccc2c(c1)N=C(N1CCN(Cc3ccc4c(c3)OCO4)CC1)c1ccccc1O2 [8-methyl-11-(4-piperonyl)-1-piperazinyl)dibenz[b,f][1,4]oxazepine] | better D4selectivity than the corresponding 4-methyl piperazine compound
32 | c1ccc2c(c1)N=C(N1CCN(Cc3ccc4c(c3)OCO4)CC1)c1ccccc1N2 [11-(4-piperonyl)-1-piperazinyl-5H-dibenzo[b,e][1,4]diazepine] | better D4selectivity than the corresponding 4-methyl piperazine compound
